The assay is described as follows: Inhibition of VEGFR2-mediated angiogenesis in human HUVEC cells after 24 hrs by inverted photomicroscopic analysis.

Usually IC50 stands for the concentration at which inhibition is half-maximal. Low values mean greater potency in that assay, high ones weaker potency in that assay. For `COC(=O)Nc1nc2ccc(C(=O)c3ccccc3)cc2[nH]1` [methyl (5-benzoyl-1H-benzimidazol-2-yl)carbamate], half-maximal inhibition (IC50) required 8.8 µM.

The values above are taken from BindingDB's records for doi:10.1021/jm300576q (Georgetown University Medical Center, 2012).
